Data as given in US20230203081A1, “LINCOSAMIDE ANTIBIOTICS AND USES THEREOF” (President and Fellows of Harvard College, priority 2020, published 2023).
Converted amounts (≈) assume the structure as drawn.

How the values were obtained:
Format in all cases: cell-based
E. coli armA = experiment: microbe, parasite or virus in culture; settings: Escherichia coli, E. coli armA
Outline: (§1)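 Per CLSI, MICs by broth microdilution or agar dilution; strains other than streptococci and anaerobes were sub-cultured overnight at 35° C on blood agar, with a final broth inoculum of 5×10^5 CFU/mL.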

E. faecium Line R & VRE = experiment: MIC (broth microdilution or agar dilution, CLSI); settings: Enterococcus faecium, E. faecium Line R & VRE, read-out: MIC
Outline: (§2)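 Following CLSI guidelines, broth microdilution or agar dilution spans usually 128-0.06 μg/mL (2.5% DMSO final), triplicate runs, clindamycin comparator. Inocula for broth work are 5×10^5 CFU/mL in cation-adjusted Mueller-Hinton; anaerobic strains get specialized handling.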

E. faecium VRE = experiment: MIC (broth microdilution or agar dilution, CLSI); settings: Enterococcus faecium; E. faecium VRE; read-out: MIC
Outline: as §2

P. aeruginosa ATCC 27853 = experiment: MIC (broth microdilution or agar dilution, CLSI); settings: Pseudomonas aeruginosa, ATCC27853; P. aeruginosa ATCC 27853; read-out: MIC
Outline: as §2

P. aeruginosa ΔAmex OprM = experiment: MIC (broth microdilution or agar dilution, CLSI); settings: Pseudomonas aeruginosa
Outline: as §2

S. aureus MRSA = experiment: MIC (broth microdilution or agar dilution, CLSI); settings: Staphylococcus aureus
Outline: as §2

A. baumannii ATCC 19606 = experiment: MIC (broth microdilution or agar dilution, CLSI); settings: Acinetobacter baumannii, ATCC19606; A. baumannii ATCC 19606; read-out: MIC
Outline: as §1

[1] = tested on: E. faecalis MMX 847; cErmB; experiment: MIC (broth microdilution or agar dilution, CLSI); settings: Enterococcus faecalis; E. faecalis MMX 847; cErmB; read-out: MIC
Outline: as §1

S. aureus ATCC 700699 = experiment: MIC (broth microdilution or agar dilution, CLSI); settings: Staphylococcus aureus, ATCC700699; S. aureus ATCC 700699; read-out: MIC
Outline: as §1

[2] = tested on: S. aureus ATCC BAA-1707 (MRSA); experiment: MIC (broth microdilution or agar dilution, CLSI); settings: Staphylococcus aureus; S. aureus ATCC BAA-1707 (MRSA); read-out: MIC
Outline: as §1

S. aureus hVISA = experiment: MIC (broth microdilution or agar dilution, CLSI); settings: Staphylococcus aureus; S. aureus hVISA; read-out: MIC
Outline: as §1

S. pneumoniae ATCC 6303 = experiment: MIC (broth microdilution or agar dilution, CLSI); settings: Streptococcus pneumoniae, ATCC6303; S. pneumoniae ATCC 6303; read-out: MIC
Outline: as §1

[3] = tested on: S. pneumoniae MMX 3028 cErmB; experiment: MIC (broth microdilution or agar dilution, CLSI); settings: Streptococcus pneumoniae, MMX3028CERMB; S. pneumoniae MMX 3028 cErmB; read-out: MIC
Outline: as §1

[4] = tested on: S. pneumoniae MMX 3031 cMefA; experiment: MIC (broth microdilution or agar dilution, CLSI); settings: Streptococcus pneumoniae, MMX3031CMEFA, S. pneumoniae MMX 3031 cMefA; read-out: MIC
Outline: as §1

[5] = tested on: S. pyogenes MMX 946; cErmB; experiment: MIC (broth microdilution or agar dilution, CLSI); settings: Streptococcus pyogenes; S. pyogenes MMX 946; cErmB; read-out: MIC
Outline: as §1

E. faecalis VRE [6] = experiment: MIC (CLSI), first E. faecalis VRE line of Table 4; settings: Enterococcus faecalis; E. faecalis VRE (Table 4, first VRE line); read-out: MIC
Protocol: (§3) Minimum inhibitory concentrations (MICs) were determined by broth microdilution method or agar dilution method following the Clinical and Laboratory Standards Institute guidelines. Standard bacterial strains were obtained from American Type Culture Collection (ATCC). Other bacterial strains were obtained from hospitals and commercial sources, so noted in Table 11. Before the start of the MIC experiment, standard and test compound stock solutions were prepared in dimethyl sulfoxide (DMSO, Aldrich D2650) at a stock concentration of 5,120 μg/mL. The compound concentration range typically employed for each experiment was 128-0.06 μg/mL (2.5% final DMSO concentration). Clindamycin was used as a comparator in all experiments and each experiment was performed in triplicate. Specialized procedures were employed for streptococcal and anaerobic strains. All other bacterial strains were sub-cultured on blood agar plates (tryptic soy agar with 5% sheep blood, Hardy Diagnostics) and incubated overnight at 35° C. Organisms were suspended in cation-adjusted Mueller-Hinton broth (CaMHB, BD 212322) and optical density was adjusted to 0.5 McFarland standard. Suspensions were further diluted to obtain a final inoculum of 5×10^5 CFU/mL for broth microdilution experiments.

E. faecalis VRE [7] = experiment: MIC (CLSI), second E. faecalis VRE line of Table 4; settings: Enterococcus faecalis; E. faecalis VRE (Table 4, second VRE line); read-out: MIC
Protocol: as §3

E. faecalis VRE [8] = experiment: MIC (CLSI), third E. faecalis VRE line of Table 4; settings: Enterococcus faecalis; E. faecalis VRE (Table 4, third VRE line); read-out: MIC
Protocol: as §3

E. coli ΔTolC = experiment: microbe, parasite or virus in culture; settings: Escherichia coli, E. coli ΔTolC
Outline: as §1

E. faecium Clinical VRE = experiment: MIC (broth microdilution or agar dilution, CLSI); settings: Enterococcus faecium; E. faecium Clinical VRE; read-out: MIC
Outline: as §2

S. aureus cErmA = experiment: MIC (broth microdilution or agar dilution, CLSI); settings: Staphylococcus aureus; S. aureus cErmA; read-out: MIC
Outline: as §2

E. coli ATCC 25922 = experiment: MIC (broth microdilution or agar dilution, CLSI); settings: Escherichia coli, ATCC25922; E. coli ATCC 25922; read-out: MIC
Outline: as §1

E. coli LptD = experiment: MIC (broth microdilution or agar dilution, CLSI); settings: Escherichia coli, E. coli LptD; read-out: MIC
Outline: as §1

E. faecalis ATCC 29212 = experiment: MIC (broth microdilution or agar dilution, CLSI); settings: Enterococcus faecalis, ATCC29212, E. faecalis ATCC 29212; read-out: MIC
Outline: as §1

K. oxytoca Clinical = experiment: MIC (broth microdilution or agar dilution, CLSI); settings: Klebsiella oxytoca; K. oxytoca Clinical; read-out: MIC
Outline: as §1

S. aureus ATCC 29213 = experiment: MIC (broth microdilution or agar dilution, CLSI); settings: Staphylococcus aureus, ATCC29213, S. aureus ATCC 29213; read-out: MIC
Outline: as §1

S. pneumoniae ATCC 49619 = experiment: MIC (broth microdilution or agar dilution, CLSI); settings: Streptococcus pneumoniae, ATCC49619, S. pneumoniae ATCC 49619; read-out: MIC
Outline: as §1

S. pyogenes ATCC 19615 = experiment: MIC (broth microdilution or agar dilution, CLSI); settings: Streptococcus pyogenes, ATCC19615, S. pyogenes ATCC 19615; read-out: MIC
Outline: as §1

Structure (SMILES) | MIC (E. coli armA) | MIC (E. faecium Line R & VRE) | MIC (E. faecium VRE) | MIC (P. aeruginosa ATCC 27853) | MIC (P. aeruginosa ΔAmex OprM) | MIC (S. aureus MRSA) | MIC (A. baumannii ATCC 19606) | MIC [1] | MIC (S. aureus ATCC 700699) | MIC [2] | MIC (S. aureus hVISA) | MIC (S. pneumoniae ATCC 6303) | MIC [3] | MIC [4] | MIC [5] | MIC (E. faecalis VRE [6]) | MIC (E. faecalis VRE [7]) | MIC (E. faecalis VRE [8]) | also measured
CCC[C@@H]1CCO[C@@H]2[C@H](CN[C@@H]2C(=O)N[C@H]([C@H](C)Cl)[C@H]2OC(SC)[C@H](O)[C@H](O)C2O)C1 (stereo partly drawn) [FSA-10-09-051] | 8 µg/mL (≈ 16.6 µM) | 8 µg/mL (≈ 16.6 µM) | 4 µg/mL (≈ 8.32 µM) | > 128 µg/mL | 2 µg/mL (≈ 4.16 µM) | 0.06 µg/mL (≈ 0.125 µM) | 8 µg/mL (≈ 16.6 µM) | 4 µg/mL (≈ 8.32 µM) | 4 µg/mL (≈ 8.32 µM) | 0.06 µg/mL (≈ 0.125 µM) | 8 µg/mL (≈ 16.6 µM) | 0.06 µg/mL (≈ 0.125 µM) | 0.25 µg/mL (≈ 0.52 µM) | 0.06 µg/mL (≈ 0.125 µM) | 0.5 µg/mL (≈ 1.04 µM) | 8 µg/mL (≈ 16.6 µM) | 8 µg/mL (≈ 16.6 µM) | 2 µg/mL (≈ 4.16 µM) | 
CS[C@H]1O[C@H]([C@H](NC(=O)[C@H]2NC[C@@H]3C[C@H](CC(C)C)CCO[C@H]32)[C@H](C)Sc2ccc(CN(C)C)cc2)[C@H](O)[C@H](O)[C@H]1O [FSA-09-04-092, (4S,5aS,8S,8aR)-N-((1S,2S)-2-((4-((Dimethylamino)methyl)phenyl)thio)-1-((2R,3R,4S,5R,6R)-3,4,5-trihydroxy-6-(methylthio)tetrahydro-2H-pyran-2-yl)propyl)-4-isobutyloctahydro-2H-oxepino[2,3-c]pyrrole-8-carboxamide] | 4 µg/mL (≈ 6.39 µM) | 2 µg/mL (≈ 3.2 µM) | 4 µg/mL (≈ 6.39 µM) | 64 µg/mL (≈ 102 µM) |  | 0.25 µg/mL (≈ 0.399 µM) | 16 µg/mL (≈ 25.6 µM) | 1 µg/mL (≈ 1.6 µM) | 8 µg/mL (≈ 12.8 µM) | 0.25 µg/mL (≈ 0.399 µM) | 16 µg/mL (≈ 25.6 µM) | 0.06 µg/mL (≈ 0.0959 µM) | 0.125 µg/mL (≈ 0.2 µM) | 0.06 µg/mL (≈ 0.0959 µM) | 0.25 µg/mL (≈ 0.399 µM) | 4 µg/mL (≈ 6.39 µM) | 8 µg/mL (≈ 12.8 µM) | 4 µg/mL (≈ 6.39 µM) | MIC (E. coli ΔTolC): 0.25 µg/mL (≈ 0.399 µM); MIC (E. faecium Clinical VRE): 1 µg/mL (≈ 1.6 µM); MIC (S. aureus cErmA): 4 µg/mL (≈ 6.39 µM); MIC (E. coli ATCC 25922): 4 µg/mL (≈ 6.39 µM); MIC (E. coli LptD): 0.5 µg/mL (≈ 0.799 µM); MIC (E. faecalis ATCC 29212): 0.25 µg/mL (≈ 0.399 µM); MIC (K. oxytoca Clinical): 8 µg/mL (≈ 12.8 µM); MIC (S. aureus ATCC 29213): 0.5 µg/mL (≈ 0.799 µM); MIC (S. pneumoniae ATCC 49619): 0.25 µg/mL (≈ 0.399 µM); MIC (S. pyogenes ATCC 19615): 0.25 µg/mL (≈ 0.399 µM)
C=CC[C@@H]1CCO[C@@H]2[C@H](CN[C@@H]2C(=O)N[C@H]([C@H](C)Cl)[C@H]2OC(SC)[C@H](O)[C@H](O)C2O)C1 (stereo partly drawn) [FSA-10-09-045] | 8 µg/mL (≈ 16.7 µM) | 16 µg/mL (≈ 33.4 µM) | 8 µg/mL (≈ 16.7 µM) | > 128 µg/mL | 2 µg/mL (≈ 4.18 µM) | 0.06 µg/mL (≈ 0.125 µM) | 16 µg/mL (≈ 33.4 µM) | 8 µg/mL (≈ 16.7 µM) | 8 µg/mL (≈ 16.7 µM) | 0.06 µg/mL (≈ 0.125 µM) | 8 µg/mL (≈ 16.7 µM) | 0.06 µg/mL (≈ 0.125 µM) | 0.5 µg/mL (≈ 1.04 µM) | 0.06 µg/mL (≈ 0.125 µM) | 1 µg/mL (≈ 2.09 µM) | 16 µg/mL (≈ 33.4 µM) | 32 µg/mL (≈ 66.8 µM) | 8 µg/mL (≈ 16.7 µM) | 
